{"source": "patent US20220287993A1", "about": "“PHARMACEUTICAL COMPOSITION COMPRISING HDAC INHIBITOR AND ANTI-PD1 ANTIBODY OR ANTI PD-L1 ANTIBODY” (CRYSTALGENOMICS, INC., priority 2019, published 2022)", "system": "Hepal-6 hepatoma cells", "test": "Tumor growth inhibition rate in mouse model (Hepal-6 hepatoma cells transplanted into C57BL/6 mice)", "type": "in vivo, mice (C57BL/6)", "method": "(E)-N1-(3-(dimethylamino)propyl)-N8-hydroxy-2-((naphthalen-1-yloxy)methyl)-2-octenediamide phosphate (CG-745, CAS No. 2173017-02-0) was used as the alkylcarbamoyl naphthalenyloxy octenoyl hydroxyamide compound, and BP0146 (BioXcell, West Lebanon, N.H., USA) was used as the anti-PD-1 antibody.\n1×10^6 Hepal-6 hepatoma cells were injected into the left flank of 6-week-old C57BL6 mice. After 5 days, they were separated into 4 groups for administration of the vehicle, CG-745 alone, the anti-PD-1 antibody alone, or a combination of CG-745 and the anti-PD-1 antibody. The tumor volume was defined as (long axis)×(short axis)^2×0.5. […] Vehicle, CG-745, and the anti-PD-1 antibody were administered intraperitoneally (I.P). CG-745 was administered at a dose of 20 mg/kg for 5 consecutive days followed by 2 days of rest (1 treatment cycle) and the treatment cycle was repeated 3 times. The anti-PD-1 antibody was administered once at a dose of 5 mg/kg together with CG-745 on the fifth day of the first treatment cycle of CG-745.\nThe average inhibition rate of tumor growth for 9 mice is shown in FIG. 1, and the results for each of 9 mice are shown in FIG. 2.", "data": [{"smiles": "CN(C)CCCNC(=O)/C(=C/CCCCC(=O)NO)COc1cccc2ccccc12.O=P(O)(O)O", "note": "[Comparative Example 1, (E)-N1-(3-(dimethylamino)propyl)-N8-hydroxy-2-((naphthalen-1-yloxy)methyl)-2-octenediamide phosphate]", "values": [{"measurement": "tumor growth inhibition rate", "setting": "Day 32, average of 9 mice, CG-745 20 mg/kg I.P. 5 days on/2 days off x 3 cycles, anti-PD-1 antibody 5 mg/kg I.P. once", "value": 73.8, "unit": "%"}, {"measurement": "number of mice in which the tumor disappeared", "setting": "of 9 mice per group, same dosing as the tumor growth inhibition rate", "value": 4, "unit": "mice"}]}]}
